Results: patent publication US11866695B2, “Methods and systems and related compositions for mixtures separation with a solid matrix” (CALIFORNIA INSTITUTE OF TECHNOLOGY, priority 2019, dated 2024)
“Also recorded” adds a separate entry of the source.

What was measured:
[1] = Phase separation of compounds mixed at a 1:1 volume ratio; format: physicochemical; design: key: A “2” denotes phase separation into 2 distinct phases; a “1” forms a single phase
[2] = system: qPCR spiked with 5×104 copies λ phage DNA; assay: qPCR reaction inhibition by dilutions of NA extraction kit buffers; format: biochemical; conditions: for Avg Cq: 9 replicates, non-detects assigned 40 cycles
Protocol: qPCR reactions contained 1× Bio-Rad SsoFast Supermix (1725201, Bio-Rad), PCR primers (IDT) at […] each, and were supplemented with nuclease-free water up to 10 μL. Each 96-well plate (thin-wall clear well, HSP9641, Bio-Rad) was sealed (Microseal B, MSB1001, Bio-Rad) and briefly spun in a Mini Plate Spinner Centrifuge (14-100-141, Fisher Scientific). Heating and real-time imaging were performed on the Bio-Rad CFX-96 Touch Real-Time PCR Detection System by heating to 95° C. for 5 min, cycling 40 times between 95° C. for 15 s, 60° C. for 15 s, and 72° C. for 20 s, and taking a melt-curve analysis. For the E. coli DNA dilution experiment, qPCR was run for 60 cycles. Fluorescence readings were taken at the end of each extension step. Quantification cycle (Cq) was determined when the software's automated baseline corrected fluorescence reached 200 RFU.
Confidence intervals were calculated assuming the populations to be normally distributed and using a t statistic. For buffer inhibition experiments, statistical analysis was performed by a 1-tailed unequal variance t-test (N=9) comparing the water condition (control) to each buffer concentration (H1: the mean is delayed). For the subsequent experiments, a 2-tailed unequal variance t-test (H1: the means are different) was used. Non-detects were assigned the maximum possible Cq measurement of 40 cycles or a TTP of 46.7 min to indicate the lack of amplification. Although this approach introduces some bias into the analysis, it is believed this is the best representation for handling non-detects (other alternatives include excluding the non-detects or assigning non-detect values to the average of those that amplified).
These two commercial kits in particular were chosen because they both utilize minimal protocols (lysis, wash, elute) with no added steps (e.g. bacterial pellet spins, proteinase K, lysozyme, DNase/RNase, filtration, etc.). Specifically, an experiment was conducted to identify the concentration at which each buffer inhibits qPCR and LAMP. First, buffers were added at half-log dilutions (from 10% down to 0.032%) into λ phage spiked qPCR or LAMP reactions (1 μL diluted buffer, 1 μL template, 8 μL reaction mix).

LAMP reaction mix = assay: 3-step Zymo ZR extraction with viral wash buffer replaced, LAMP with 2× dilution of eluent; format: biochemical; conditions: wash replaces viral wash buffer; 5 μL eluent in 10 μL
Protocol: Three different silica-column kits were tested, including: Zymo ZR Viral DNA/RNA Kit (outdated protocol, D7021), Zymo Quick-DNA/RNA Kit (updated protocol, D7021), and the QIAquick PCR Purification Kit (28104, Qiagen). For all silica-column kits, fresh collection tubes were used after each spin and centrifugation speeds were set to 16,000×g. Centrifugation was performed on either an Eppendorf 5415D centrifuge (Eppendorf, Hauppauge, N.Y., USA) or a Thermo Fisher Scientific AccuSpin Micro 17R centrifuge (13-100-676). It was noted that the QIAquick protocol calls for 17,900×g, but instead was run at 16,000×g which was the max speed for the Eppendorf 5415D. For both Zymo kits, 750 μL lysed sample was prepared by mixing 125 μL sample with 125 μL Zymo 2×DNA/RNA Shield and 500 μL Viral DNA/RNA Buffer. For the Zymo ZR Viral DNA/RNA kit, 750 μL lysed sample was centrifuge for 1 min, 500 μL Zymo Viral Wash Buffer was centrifuged for 2 min, and 50 μL nuclease-free water was centrifuged for 30 s into a clean 1.5 mL tube. Optionally, either a dry spin or 300 μL TPW was centrifuged for 2 min in between the Viral Wash Buffer and elution steps. […] For the QIAquick PCR Purification Kit, 125 μL sample was mixed with 625 μL Buffer PB without indicator. 750 μL lysed sample was centrifuged for 30 s, followed by 750 μL Buffer PE for 30 s, a dry spin for 1 min, and 50 μL nuclease-free water for 1 min. Optionally, the dry spin was skipped or the dry spin was replaced with a 300 μL TPW and centrifuged for 1 min.
Exchanging the ethanol wash for a TPW could be useful for applications in which the starting sample is already relatively pure. For this experiment, Zymo ZR kit was used, which has three centrifugation steps: lysis (sample, shield, lysis buffer), wash (ethanol-based viral wash buffer), and elution (water). […] An aliquot of 5 μL of the resulting eluent was added to 5 μL of LAMP reaction mix and amplified at 68° C. Eluent from the manufacturer protocol amplified in 5.7 min. […]

Row | SMILES | Number of phases ([1]; mixed 1:1 (volume) with Ethanol) | Number of phases ([1]; mixed 1:1 (volume) with H2O) | Number of phases ([1]; mixed 1:1 (volume) with VWB (80% ethanol v/v)) | Avg Cq ([2]; 0.03% buffer in qPCR) [cycles] | ΔCq ([2]; 0.03% buffer vs water condition (0%)) [cycles] | Avg Cq ([2]; 0.1% buffer in qPCR) [cycles] | ΔCq ([2]; 0.1% buffer vs water condition (0%)) [cycles] | Avg Cq ([2]; 0.32% buffer in qPCR) [cycles] | ΔCq ([2]; 0.32% buffer vs water condition (0%)) [cycles] | Avg Cq ([2]; 1% buffer in qPCR) [cycles] | ΔCq ([2]; 1% buffer vs water condition (0%)) [cycles] | Avg Cq ([2]; 3.2% buffer in qPCR) [cycles] | ΔCq ([2]; 3.2% buffer vs water condition (0%)) [cycles] | Avg Cq ([2]; 10% buffer in qPCR) [cycles] | ΔCq ([2]; 10% buffer vs water condition (0%)) [cycles] | LAMP performance of eluent (LAMP reaction mix)
1 | CCCCCCCCCCCO [1-undecanol] | 1 | 2 | 1 |  |  |  |  |  |  |  |  |  |  |  |  | 
2 | CCO [Ethanol, ethanol] |  |  |  | 20.1 | 0.0 | 20.2 | 0.1 | 20.2 | 0.1 | 20.1 | 0.0 | 20.6 | 0.5 | 27.5 | 7.4 | slightly outperforms the viral wash buffer; also recorded: performed slightly better (earlier TTP) than the viral wash buffer
